Source: patent publication US6140487A (Kabushiki Kaisha Hayashibara Seibutsu Kagaku Kenkyujo, priority 1996, dated 2000)

Tested on: 7week-old dd-strain mice
Assay: Acute toxicity test, oral administration
Type: in vivo
Conditions: powdery product rich in the saccharide, maximum dose 50 g/kg mouse by weight
Experimental: Acute toxicity test of the powdery products rich in glucosylsorbose, kojitriose, kojibiosylglucoside, and kojibiosylfructoside in Experiments 8-12 were tested in 7week-old dd-strain mice by administering orally. As a result, no mouse died even when administered with their maximum doses, i.e., 50 g/kg mouse by weight.

SMILES | Acute toxicity: death of mice
O=C(CO)[C@@H](O)[C@H](O)[C@H](CO)O[C@H]1O[C@H](CO)[C@@H](O)[C@H](O)[C@H]1O [glucosylsorbose, α-D-glucosyl-(1→5)-L-sorbose] | no mouse died
OC[C@H]1O[C@@](CO)(O[C@H]2O[C@H](CO)[C@@H](O)[C@H](O)[C@H]2O[C@H]2O[C@H](CO)[C@@H](O)[C@H](O)[C@H]2O)[C@@H](O)[C@@H]1O [kojibiosylfructoside, α-D-glucosyl-(1→2)-α-D-glucosyl-(1→2)-β-D-fructoside] | no mouse died
OC[C@H]1O[C@H](O[C@H]2O[C@H](CO)[C@@H](O)[C@H](O)[C@H]2O[C@H]2O[C@H](CO)[C@@H](O)[C@H](O)[C@H]2O)[C@H](O)[C@@H](O)[C@@H]1O [kojibiosylglucoside, α-D-glucosyl-(1→2)-α-D-glucosyl-(1,1)-α-D-glucoside] | no mouse died
OC[C@H]1O[C@H](O[C@H]2[C@@H](O[C@H]3C(O)O[C@H](CO)[C@@H](O)[C@@H]3O)O[C@H](CO)[C@@H](O)[C@@H]2O)[C@H](O)[C@@H](O)[C@@H]1O (stereo partly drawn) [kojitriose, α-D-glucosyl-(1→2)-α-D-glucosyl-(1→2)-D-glucose] | no mouse died

Target: T1, kojibiose phosphorylase (Thermoanaerobacter brockii, UniProt Q8L163)
T1 sequence (Q8L163 1-775): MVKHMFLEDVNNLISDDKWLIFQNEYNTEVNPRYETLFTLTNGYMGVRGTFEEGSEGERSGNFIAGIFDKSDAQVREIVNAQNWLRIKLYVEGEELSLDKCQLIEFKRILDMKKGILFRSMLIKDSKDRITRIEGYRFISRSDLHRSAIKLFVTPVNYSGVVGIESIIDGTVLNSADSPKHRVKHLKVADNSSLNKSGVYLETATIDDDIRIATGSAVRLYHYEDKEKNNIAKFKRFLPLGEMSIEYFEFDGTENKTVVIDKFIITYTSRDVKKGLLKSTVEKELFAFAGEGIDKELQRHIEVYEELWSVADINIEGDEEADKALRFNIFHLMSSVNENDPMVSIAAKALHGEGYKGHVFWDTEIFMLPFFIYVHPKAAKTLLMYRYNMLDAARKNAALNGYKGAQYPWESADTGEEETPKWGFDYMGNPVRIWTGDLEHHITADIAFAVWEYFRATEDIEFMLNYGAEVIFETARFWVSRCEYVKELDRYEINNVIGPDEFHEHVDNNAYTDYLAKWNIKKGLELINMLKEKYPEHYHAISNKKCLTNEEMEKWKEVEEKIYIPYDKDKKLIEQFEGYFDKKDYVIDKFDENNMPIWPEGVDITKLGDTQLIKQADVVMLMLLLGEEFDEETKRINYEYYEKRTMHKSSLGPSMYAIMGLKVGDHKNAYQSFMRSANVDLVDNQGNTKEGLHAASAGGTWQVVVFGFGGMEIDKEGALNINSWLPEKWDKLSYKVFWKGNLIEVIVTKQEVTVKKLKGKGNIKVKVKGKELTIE
Assay: Specificity to acceptor in glucosyl-transferred saccharide-forming reaction by kojibiose phosphorylase (TLC)
Type: biochemical, Thermoanaerobium brockii, ATCC 35047
Parameters: made in house; host or cells: Thermoanaerobium brockii, ATCC 35047 (natural producer, not recombinant; cell lysate purified by column chromatography)
Conditions: summary of Table 2
Description: The concentrations of the acceptors and the saccharide donors were adjusted to one w/v %. Similarly as in Experiment 5, the pre-reaction solutions and the post reaction mixtures were subjected to TLC, followed by coloring the plates. […] By macroscopically observing the coloration degree of the newly detected spots, the yield of the transferred saccharides was relatively evaluated.

Transfer of glucosyl group from β-D-glucose-1-phosphoric acid to the acceptor (in words) | SMILES
effectively transferred glucosyl group | OC[C@H]1O[C@H](O[C@H]2C(O)O[C@H](CO)[C@@H](O)[C@@H]2O)[C@H](O)[C@@H](O)[C@@H]1O (stereo partly drawn) [Kojibiose]
effectively transferred glucosyl group | OCC1(O)OC[C@H](O)[C@@H](O)[C@@H]1O (stereo partly drawn) [L-Sorbose]
effectively transferred glucosyl group | OC[C@H]1O[C@H](O[C@H]2[C@H](O)[C@@H](O)[C@@H](O[C@H]3[C@H](O)[C@@H](O)[C@@H](O[C@H]4[C@H](O)[C@@H](O)[C@@H](O[C@H]5[C@H](O)[C@@H](O)C(O)O[C@@H]5CO)O[C@@H]4CO)O[C@@H]3CO)O[C@@H]2CO)[C@H](O)[C@@H](O)[C@@H]1O (stereo partly drawn) [Maltopentaose]
effectively transferred glucosyl group | OC[C@H]1O[C@H](O[C@H]2[C@H](O)[C@@H](O)[C@H](O)O[C@@H]2CO)[C@H](O)[C@@H](O)[C@@H]1O [Maltose]
effectively transferred glucosyl group | OC[C@H]1O[C@H](O[C@H]2[C@H](O)[C@@H](O)[C@@H](O[C@H]3[C@H](O)[C@@H](O)[C@@H](O[C@H]4[C@H](O)[C@@H](O)C(O)O[C@@H]4CO)O[C@@H]3CO)O[C@@H]2CO)[C@H](O)[C@@H](O)[C@@H]1O (stereo partly drawn) [Maltotetraose]
effectively transferred glucosyl group | OC[C@H]1O[C@H](O[C@H]2[C@H](O)[C@@H](O)[C@@H](O[C@H]3[C@H](O)[C@@H](O)C(O)O[C@@H]3CO)O[C@@H]2CO)[C@H](O)[C@@H](O)[C@@H]1O (stereo partly drawn) [Maltotriose]
effectively transferred glucosyl group | OC[C@H]1O[C@@](CO)(O[C@H]2O[C@H](CO)[C@@H](O)[C@H](O)[C@H]2O)[C@@H](O)[C@@H]1O [Sucrose]
effectively transferred glucosyl group | OC[C@H]1O[C@H](O[C@H]2O[C@H](CO)[C@@H](O)[C@H](O)[C@H]2O)[C@H](O)[C@@H](O)[C@@H]1O [Trehalose]

SMILES | Transfer of glucosyl group from β-D-glucose-1-phosphoric acid to the acceptor (in words)
OC[C@H]1OC(O)[C@H](O)[C@@H](O)[C@@H]1O (stereo partly drawn) [D-Glucose] | effectively transferred glucosyl group

Same assay, conditions: used in place of β-D-glucose-1-phosphoric acid

SMILES | Formation of glucosyl-transferred saccharide with the substance as saccharide donor
O=P(O)(O)O[C@H]1O[C@H](CO)[C@@H](O)[C@H](O)[C@H]1O [α-D-glucose-1-phosphoric acid] | No glucosyl-transferred saccharide was formed

Target: T1, kojibiose phosphorylase
Assay: Substrate specificity for saccharide-hydrolyzing reaction by kojibiose phosphorylase (TLC)
Conditions: summary of Table 1
Description: The saccharide concentration of each reaction solution was 2 w/v %. Pre-reaction solutions and post-reaction mixtures were subjected to thin layer chromatography (hereinafter abbreviated as "TLC") using "[sequence] 60 (20×20 cm)", an aluminum plate for TLC commercialized by Merck & Co., Inc., Rahway, USA. Samples were developed once at ambient temperature on the plate using 1-butanol/pyridine/water (=7:3:1 by volume) as a developing solvent system, and the plate was sprayed with 20 v/v % sulfuric acid/methanol solution, and heated at 110° C. for about 10 min for coloration. Comparing spots of the solutions and mixtures detected on the plates, it was checked whether the enzyme acted on the saccharides.

Action of kojibiose phosphorylase on the saccharide (substrate specificity, in words) | SMILES
acted on it | OC[C@H]1O[C@H](O[C@H]2C(O)O[C@H](CO)[C@@H](O)[C@@H]2O)[C@H](O)[C@@H](O)[C@@H]1O (stereo partly drawn) [Kojibiose]
